Measurements published in the NIST ThermoML archive (doi:10.1016/j.jct.2017.08.004).

Assay: molar heat capacity at constant pressure
Conditions: 101.33 kPa, Crystal

O[C@H]1[C@H](O)[C@@H](O)[C@H](O)[C@@H](O)[C@H]1O [cis-1,2,3,5-trans-4,6-cyclohexanehexol]
Conditions | molar heat capacity at constant pressure [J/K/mol]
218.15 K, Small sample (50 mg) DSC | 157.24
219.15 K, Small sample (50 mg) DSC | 158
220 K, relaxation calorimetry | 160.15
220.15 K, Small sample (50 mg) DSC | 158.66
221.15 K, Small sample (50 mg) DSC | 159.51
221.79 K, relaxation calorimetry | 161.31
222.15 K, Small sample (50 mg) DSC | 160.36
223.15 K, Small sample (50 mg) DSC | 161.11
224.15 K, Small sample (50 mg) DSC | 161.84
225.15 K, Small sample (50 mg) DSC | 162.58
226.15 K, Small sample (50 mg) DSC | 163.3
227.15 K, Small sample (50 mg) DSC | 164.03
228.15 K, Small sample (50 mg) DSC | 164.76
229.15 K, Small sample (50 mg) DSC | 165.48
230 K, relaxation calorimetry | 167.37
230.15 K, Small sample (50 mg) DSC | 166.09
231.15 K, Small sample (50 mg) DSC | 166.87
231.88 K, relaxation calorimetry | 168.69
232.15 K, Small sample (50 mg) DSC | 167.66
233.15 K, Small sample (50 mg) DSC | 168.47
234.15 K, Small sample (50 mg) DSC | 169.23
235.15 K, Small sample (50 mg) DSC | 169.98
236.15 K, Small sample (50 mg) DSC | 170.76
237.15 K, Small sample (50 mg) DSC | 171.54
238.15 K, Small sample (50 mg) DSC | 172.36
239.15 K, Small sample (50 mg) DSC | 173.06
240 K, relaxation calorimetry | 174.63
240.15 K, Small sample (50 mg) DSC | 173.81
241.15 K, Small sample (50 mg) DSC | 174.61
241.96 K, relaxation calorimetry | 176.25
242.15 K, Small sample (50 mg) DSC | 175.4
243.15 K, Small sample (50 mg) DSC | 176.08
244.15 K, Small sample (50 mg) DSC | 176.84
245.15 K, Small sample (50 mg) DSC | 177.49
246.15 K, Small sample (50 mg) DSC | 178.19
247.15 K, Small sample (50 mg) DSC | 178.89
248.15 K, Small sample (50 mg) DSC | 179.65
249.15 K, Small sample (50 mg) DSC | 180.32
250 K, relaxation calorimetry | 181.94
250.15 K, Small sample (50 mg) DSC | 181.03
251.15 K, Small sample (50 mg) DSC | 181.9
251.99 K, relaxation calorimetry | 183.44
252.15 K, Small sample (50 mg) DSC | 182.55
253.15 K, Small sample (50 mg) DSC | 183.36
254.15 K, Small sample (50 mg) DSC | 184.08
255.15 K, Small sample (50 mg) DSC | 184.96
256.15 K, Small sample (50 mg) DSC | 185.78
257.15 K, Small sample (50 mg) DSC | 186.45
258.15 K, Small sample (50 mg) DSC | 187.25
259.15 K, Small sample (50 mg) DSC | 188.05
260 K, relaxation calorimetry | 189.3
260.15 K, Small sample (50 mg) DSC | 188.81
261.15 K, Small sample (50 mg) DSC | 189.58
262.11 K, relaxation calorimetry | 191.23
262.15 K, Small sample (50 mg) DSC | 190.24
263.15 K, Small sample (50 mg) DSC | 191.02
264.15 K, Small sample (50 mg) DSC | 191.84
265.15 K, Small sample (50 mg) DSC | 192.51
266.15 K, Small sample (50 mg) DSC | 193.18
267.15 K, Small sample (50 mg) DSC | 194.11
